Some test systems named below: HOP-62 NSCLC; SN12C renal; SK-MEL-2 melanoma; SNB-19 CNS; HCT-116 colon; COLO 205 colon; HCT-15 colon; SF-295 CNS; A549 NSCLC; NCI-H522 lung.
Assay in all cases: DTP human tumour cell line panel, 48 h

SMILES strings stand for the structures.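 Cultured in 96-well plates, cells were exposed to test compound for 48 hours across five concentrations. GI50 marks 50% less growth. The concentration for full growth arrest is given as TGI.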 A value given as a limit tells only on which side of the number the result lay.

What is called GI50 is the concentration at which growth is held to half of that of the control. As a reminder, the TGI is the concentration giving total growth inhibition. Read a low TGI as more potent growth arrest.

As to `CN(Cc1cnc2nc(N)nc(N)c2n1)c1c(Cl)cc(C(=O)NC(CCC(=O)O)C(=O)O)cc1Br` (centres undefined), the 50% growth inhibitory concentration (GI50) was less than 0.0221 µM in the experiment on HOP-62 NSCLC; less than 0.01 µM with SN12C renal; less than 0.01 µM in the experiment on SK-MEL-2 melanoma; 0.031 µM in the experiment on SNB-19 CNS; less than 0.01 µM in the experiment with HCT-116 colon; 0.0535 µM in the experiment with COLO 205 colon. For the same compound, the GI50 in the experiment on HCT-15 colon is less than 0.01 µM; with SF-295 CNS it was less than 0.01 µM; with A549 NSCLC, less than 0.01 µM; with NCI-H522 lung, 0.0391 µM. Also, the TGI with HOP-62 NSCLC, with SN12C renal, with SK-MEL-2 melanoma, with SNB-19 CNS, with HCT-116 colon and in the experiment on COLO 205 colon was more than 100 µM throughout. The total growth inhibition concentration (TGI) in the experiment on HCT-15 colon, in the experiment with A549 NSCLC and with NCI-H522 lung was more than 100 µM each time.

With `COc1cc2c(cc1OC)C(Sc1ccc(Cl)cc1)c1c(nc(N)c(C#N)c1N)O2` (centres undefined), the GI50 was 1.53 µM with HOP-62 NSCLC; 1.51 µM in the experiment on SN12C renal; 1.2 µM with SK-MEL-2 melanoma; 1.47 µM in the experiment with SNB-19 CNS; 1.96 µM in the experiment with HCT-116 colon; 1.43 µM in the experiment on COLO 205 colon. In addition, the GI50 with HCT-15 colon is 1.19 µM; with SF-295 CNS it was 1.83 µM; with A549 NSCLC it was 1.75 µM; in the experiment on NCI-H522 lung it was 1.29 µM. Also, the TGI in the experiment on HOP-62 NSCLC worked out at 2.88 µM; in the experiment with SN12C renal, 2.94 µM; with SK-MEL-2 melanoma it was 2.55 µM; in the experiment on SNB-19 CNS, 2.86 µM; in the experiment with HCT-116 colon it was 3.46 µM; with COLO 205 colon, 2.95 µM. Moreover, the TGI is 2.66 µM in the experiment with HCT-15 colon, 3.31 µM with SF-295 CNS, 3.36 µM in the experiment on A549 NSCLC and 2.64 µM with NCI-H522 lung.

For the compound `N#CC(C#N)=C/C=C/c1ccccc1[N+](=O)[O-]`, the TGI was more than 10 µM in the experiment with HOP-62 NSCLC; more than 10 µM with SN12C renal; more than 10 µM with SK-MEL-2 melanoma; more than 10 µM in the experiment with SNB-19 CNS; 3.67 µM in the experiment on HCT-116 colon; more than 10 µM in the experiment on COLO 205 colon. The concentration for total growth inhibition (TGI) in the experiment with HCT-15 colon, in the experiment on SF-295 CNS, with A549 NSCLC and with NCI-H522 lung was more than 10 µM each time.

Turning to `COc1cc(OC)c(OC)cc1/C=C\c1ccnc2ccccc12`, the TGI with HOP-62 NSCLC was more than 62.1 µM; in the experiment with SN12C renal it was more than 100 µM; in the experiment on SK-MEL-2 melanoma, 7.4 µM; in the experiment on SNB-19 CNS, more than 74.5 µM; in the experiment on HCT-116 colon it was 54.8 µM; with COLO 205 colon, 3.86 µM. For the same compound, the TGI with HCT-15 colon was more than 100 µM; in the experiment with SF-295 CNS it was 3.55 µM; in the experiment on A549 NSCLC, more than 72.6 µM; in the experiment on NCI-H522 lung, 4.25 µM.

On to `COc1ccc(-c2nc3sccn3c2/C=C/C(=O)c2cc(OC)c(OC)c(OC)c2)cc1`, for which the GI50 is 2.53 µM with HOP-62 NSCLC; 3 µM with SN12C renal; 3.58 µM in the experiment on SK-MEL-2 melanoma; 3.32 µM with SNB-19 CNS; 2.19 µM in the experiment with HCT-116 colon; 2.82 µM in the experiment on COLO 205 colon. The GI50 in the experiment with HCT-15 colon is 3.33 µM; in the experiment on SF-295 CNS, 2.91 µM; with A549 NSCLC it was 2.92 µM; in the experiment with NCI-H522 lung, 4.16 µM. In addition, the TGI was more than 25.7 µM with HOP-62 NSCLC; more than 100 µM in the experiment on SN12C renal; more than 26.3 µM in the experiment on SK-MEL-2 melanoma; more than 100 µM in the experiment with SNB-19 CNS; 12.6 µM in the experiment on HCT-116 colon; 13 µM in the experiment on COLO 205 colon. Moreover, the total growth inhibition concentration (TGI) was more than 83 µM in the experiment on HCT-15 colon, 18.3 µM with SF-295 CNS, more than 22.9 µM in the experiment on A549 NSCLC and more than 22.2 µM with NCI-H522 lung.

As to `CN1CCC(C(=O)Nc2n[nH]c3nnc(-c4ccccc4)cc23)CC1`, the GI50 in the experiment with HOP-62 NSCLC was more than 25 µM; with SN12C renal, more than 25 µM; with SK-MEL-2 melanoma it was more than 20.1 µM; in the experiment with SNB-19 CNS, more than 25 µM; in the experiment with HCT-116 colon it was more than 23.6 µM; with COLO 205 colon, more than 25 µM. Also, the GI50 was more than 25 µM with HCT-15 colon, 17.5 µM in the experiment on SF-295 CNS, more than 25 µM with A549 NSCLC and more than 25 µM in the experiment on NCI-H522 lung. Further, the TGI in the experiment with HOP-62 NSCLC, with SN12C renal, in the experiment with SK-MEL-2 melanoma, with SNB-19 CNS, in the experiment with HCT-116 colon and in the experiment on COLO 205 colon was more than 25 µM in each case. For the same compound, the TGI with HCT-15 colon, in the experiment with SF-295 CNS, in the experiment on A549 NSCLC and in the experiment on NCI-H522 lung was more than 25 µM each time.

With `NC(=O)N1N=C2c3ccccc3OC[C@H]2[C@@H]1c1ccccc1`, the TGI with HOP-62 NSCLC is more than 100 µM; in the experiment on SN12C renal it was more than 100 µM; in the experiment with SK-MEL-2 melanoma, more than 100 µM; with SNB-19 CNS it was more than 100 µM; in the experiment with HCT-116 colon, more than 39.2 µM; in the experiment with COLO 205 colon, 51.5 µM. In addition, the TGI was more than 81.6 µM with HCT-15 colon, more than 35.7 µM with SF-295 CNS, more than 100 µM with A549 NSCLC and 12.7 µM in the experiment with NCI-H522 lung.

The record behind these values is PubChem BioAssay (NCI).
